Data published in US9951035B2, “Selective matrix metalloproteinase inhibitors” (University of Notre Dame du Lac, priority 2014, dated 2018).
Entries after “also recorded” stand apart in the source; their conditions may differ. Structures can show the parent of a compound that is named as a salt.

What was measured:
[1] = Pharmacokinetics and brain distribution after single iv dose
Method: Mice (male CD-1, 6-7 weeks old, ˜30 g body weight, specific pathogen free) were purchased from Charles River Laboratories, Inc. (Wilmington, Mass., USA).
Samples were analyzed by ultraperformance liquid chromatography (UPLC)/(+)electrospray ionization (ESI)-multiple-reaction monitoring (MRM) with a reversed phase C18 column (Acclaim® RSLC 120 C18, 2.2 μm, 120 Å, 2.1×100 mm, Dionex, Sunnyvale, Calif., USA).
Quantification of the compounds in plasma and brain was obtained using peak-area ratios of the compounds to the internal standard, and the linear-regression parameters obtained from the calibration curves.

MMP-3 = MMP-3 (Homo sapiens (Human), UniProt P08254); assay: Enzyme inhibition studies, MMP-3 catalytic domain; assay type: biochemical; settings: at 100 μM; listed as ND-336, HCl salt
Chain of MMP-3 (P08254 100-272): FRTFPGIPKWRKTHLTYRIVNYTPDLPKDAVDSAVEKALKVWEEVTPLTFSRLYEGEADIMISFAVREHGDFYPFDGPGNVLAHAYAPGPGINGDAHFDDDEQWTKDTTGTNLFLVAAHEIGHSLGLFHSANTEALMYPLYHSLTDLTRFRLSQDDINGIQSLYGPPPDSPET

ADAM10 = ADAM10 (Homo sapiens (Human), UniProt O14672); assay: Enzyme inhibition studies, ADAM10; assay type: biochemical; settings: at 100 μM; listed as ND-336, HCl salt
Chain of ADAM10 (O14672 214-672): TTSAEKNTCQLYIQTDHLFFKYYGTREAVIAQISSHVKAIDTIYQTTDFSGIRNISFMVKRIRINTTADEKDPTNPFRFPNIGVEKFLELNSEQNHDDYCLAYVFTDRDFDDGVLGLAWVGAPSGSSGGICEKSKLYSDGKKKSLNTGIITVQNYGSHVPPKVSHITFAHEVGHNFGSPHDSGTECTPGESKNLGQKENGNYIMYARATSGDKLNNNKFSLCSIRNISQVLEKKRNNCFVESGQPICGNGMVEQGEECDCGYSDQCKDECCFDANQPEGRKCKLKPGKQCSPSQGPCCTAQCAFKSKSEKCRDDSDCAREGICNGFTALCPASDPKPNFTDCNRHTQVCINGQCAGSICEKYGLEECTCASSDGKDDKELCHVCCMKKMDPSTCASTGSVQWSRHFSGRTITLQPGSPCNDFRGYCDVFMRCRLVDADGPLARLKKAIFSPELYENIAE

[2] = Water solubility (filtrate of saturated aqueous solution, UPLC-MRM)
MMP-2 = MMP-2 (Homo sapiens (Human), UniProt P08253); assay: Enzyme inhibition studies, MMP-2; assay type: biochemical; settings: slow-binding, Ki calculated from koff/kon
Chain of MMP-2 (P08253 110-660): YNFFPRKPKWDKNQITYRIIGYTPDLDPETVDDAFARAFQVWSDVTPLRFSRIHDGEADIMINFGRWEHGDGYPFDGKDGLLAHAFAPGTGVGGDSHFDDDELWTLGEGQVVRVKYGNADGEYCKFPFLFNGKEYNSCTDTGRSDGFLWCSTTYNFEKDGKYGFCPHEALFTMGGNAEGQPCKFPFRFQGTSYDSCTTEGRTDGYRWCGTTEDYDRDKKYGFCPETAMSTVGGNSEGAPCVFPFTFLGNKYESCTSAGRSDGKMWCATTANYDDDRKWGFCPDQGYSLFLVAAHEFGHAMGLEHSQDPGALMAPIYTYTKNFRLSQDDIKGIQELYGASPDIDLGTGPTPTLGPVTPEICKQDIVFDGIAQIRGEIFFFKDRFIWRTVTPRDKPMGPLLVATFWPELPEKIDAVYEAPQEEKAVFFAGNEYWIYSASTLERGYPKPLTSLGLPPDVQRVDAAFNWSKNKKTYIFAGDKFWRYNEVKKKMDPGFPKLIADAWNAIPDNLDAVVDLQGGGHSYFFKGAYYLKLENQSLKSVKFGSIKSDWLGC

ADAM9 = ADAM9 (Homo sapiens (Human), UniProt Q13443); assay: Enzyme inhibition studies, ADAM9; assay type: biochemical; settings: at 100 μM; listed as ND-336, HCl salt
Chain of ADAM9 (Q13443 206-697): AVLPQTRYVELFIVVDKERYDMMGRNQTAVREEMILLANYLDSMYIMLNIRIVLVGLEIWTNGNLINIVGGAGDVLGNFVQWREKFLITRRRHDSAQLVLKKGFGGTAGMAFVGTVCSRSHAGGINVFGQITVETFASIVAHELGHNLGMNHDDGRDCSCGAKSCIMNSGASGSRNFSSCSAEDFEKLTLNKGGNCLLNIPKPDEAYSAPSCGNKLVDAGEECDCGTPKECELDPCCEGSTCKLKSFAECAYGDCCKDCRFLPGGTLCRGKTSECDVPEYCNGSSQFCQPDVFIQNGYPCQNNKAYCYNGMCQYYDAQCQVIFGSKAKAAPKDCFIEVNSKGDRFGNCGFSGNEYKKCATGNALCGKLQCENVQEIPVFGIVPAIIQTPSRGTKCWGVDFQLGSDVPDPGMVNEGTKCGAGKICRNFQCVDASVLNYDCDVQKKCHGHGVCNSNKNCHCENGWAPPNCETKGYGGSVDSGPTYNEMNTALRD

[3] = Stability in buffers of the kinetic assays; assay type: physicochemical; settings: in words
From the text: Human recombinant active MMP-2 and MMP-7, and the catalytic domains of MMP-3 and MMP-14/MT1-MMP were purchased from EMD Chemicals, Inc. (San Diego, Calif., USA); human recombinant catalytic domains of MMP-1, MMP-8, and MMP-9 were purchased from Enzo Life Sciences, Inc. (Farmingdale, N.Y., USA); human recombinant active ADAM9 and ADAM10 were purchased from R&D Systems (Minneapolis, Minn., USA). Fluorogenic substrates MOCAc-Pro-Leu-Gly-Leu-A2pr(Dnp)-Ala-Arg-NH2 (for MMP-2, MMP-7, MMP-9 and MMP-14) and MOCAc-Arg-Pro-Lys-Pro-Val-Glu-Nva-Trp-Arg-Lys(Dnp)-NH2 (for MMP-3) were purchased from Peptides International (Louisville, Ky., USA); Mca-KPLGL-Dpa-AR-NH2 (for MMP-1, MMP-8 and ADAM10) and Mca-PLAQAV-Dpa-RSSSR-NH2 (for ADAM9) were purchased from R&D Systems (Minneapolis, Minn., USA). […] Inhibitor stock solutions (10 mM) were prepared fresh in DMSO before enzyme inhibition assays. We followed the same methodology for enzyme inhibition studies as reported by Page-McCaw et al. (Nat. Rev. Mol. Cell Biol. 2007, 8, 221-233). Enzyme inhibition studies were carried out using a Cary Eclipse fluorescence spectrophotometer (Varian, Walnut Creek, Calif., USA). Compounds 4, 5, 6 and 7 were stable in the buffers that were used in the kinetic assays.

[4] = male, CD-1, mouse, in vivo, 5 mg/kg
[5] = male, CD-1, mouse, in vivo, iv, 5 mg/kg
[6] = plasma, 5 mg/kg single iv, mice

## NCc1ccc(Oc2ccc(S(=O)(=O)CC3CS3)cc2)cc1 (centres unmarked) [Compound 5, (4-(4-((Thiiran-2-ylmethyl)sulfonyl)phenoxy)phenyl)methanamine HCl salt]
[1]; 5 mg/kg single iv, mice
  time brain levels above Ki for MMP-2: at least 30 min
  time brain levels above Ki for MMP-9: at least 30 min
  time plasma levels above Ki for MMP-2: at least 30 min
  time plasma levels above Ki for MMP-9: at least 30 min
[1]; 2 min after 5 mg/kg single iv, mice
  Brain concentration: 5.55 ± 2.38 pmol/mg tissue
[1]; 5 min after 5 mg/kg single iv, mice
  Brain concentration: 2.97 ± 2.41 pmol/mg tissue
[1]; 10 min after 5 mg/kg single iv, mice
  Brain concentration: 1.20 ± 0.50 pmol/mg tissue
[1]; 30 min after 5 mg/kg single iv, mice
  Brain concentration: 0.213 ± 0.143 pmol/mg tissue
[1]; 60 min after 5 mg/kg single iv, mice
  Brain concentration: 0.0368 ± 0.0232 pmol/mg tissue
[1]; 90 min after 5 mg/kg single iv, mice
  Brain concentration: 0.0213 ± 0.0106 pmol/mg tissue
[1]; 120 min after 5 mg/kg single iv, mice
  Brain concentration: 0.0158 ± 0.0125 pmol/mg tissue
[1]; 240 min after 5 mg/kg single iv, mice
  Brain concentration: 0.00531 ± 0.00402 pmol/mg tissue
[1]; brain, 5 mg/kg single iv, mice
  AUC0-last: 57.7 pmol·min/mg
  AUC0-∞: 58.3 pmol·min/mg
  t1/2α: 3.32 min
  t1/2β: 75.3 min
[1]; in words, listed as ND-336, HCl salt
  crossing of the blood-brain barrier: cross the blood-brain barrier; also recorded: crosses the BBB
[1]; [4]
  concentration at 2 min: 4.35 ± 1.1 µM
  concentration at 5 min: 3.15 ± 1.49 µM
  concentration at 10 min: 2390 ± 820 nM
  concentration at 30 min: 377 ± 116 nM
  concentration at 60 min: 57.4 ± 31.6 nM
  concentration at 90 min: 33.2 ± 6.5 nM
  concentration at 120 min: 21.8 ± 5.4 nM
  concentration at 240 min: 6.94 ± 6.06 nM
[1]; [5]
  AUC(0-inf): 1.23 µM·h
  AUC(0-t): 1.22 µM·h
  Kp: 0.793
  Vd: 2.76 L/kg
  clearance: 202 mL/min/kg
[1]; [6]
  AUC0-last: 72.9 µM·min
  AUC0-∞: 73.6 µM·min
  CL: 0.202 L/min/kg
  t1/2α: 6.47 min
  t1/2β: 68.0 min
MMP-3
  Inhibition: Ki (MMP-3) 23% inhibition at 100 μM
ADAM10
  Inhibition: Ki (ADAM-10) 14% inhibition at 100 μM
[2]; HCl salt
  Aq. solubility: 4.9 mg/mL
[2]; listed as ND-336, HCl salt
  Aq. solubility: Water Solubility 4.9 mg/mL
[2]; thermodynamic from solid
  solubility: 4900 µg/mL
MMP-2; Ki
  Ki: 85 ± 1 nM
MMP-2
  Ki: 85 nM
ADAM9
  Inhibition: Ki (ADAM-9) 31% inhibition at 100 μM
[3]
  stability in the buffers used in the kinetic assays: stable
